Source: US20190350964A1, “ANTI-CANCER COMPOUNDS AND USES THEREOF” (NATIONAL UNIVERSITY OF SINGAPORE, priority 2016, published 2019)

How the values were obtained:
[1] = test system: normal and transformed BJ cells; experiment: Crystal violet / MTT viability of isogenic normal and transformed BJ cells; details: 72 h; crystal violet and MTT (0.1-40 μM)
[2] = test system: normal and transformed BJ cells; experiment: a131 SAR analysis: pH3(Ser10) immunoblot, BrdU incorporation, subG1 FACS; assay type: cell-based, human; design: key: Group 1: possess the dual-inhibitory properties of both causing the arrest of normal BJ cells at the G1/S phase and also causing mitotic arrest/catastrophe in transformed BJ cells; Group 2: only cause the arrest of normal BJ cells at the G1/S phase; Group 3: cause mitotic arrest/catastrophe in transformed BJ cells, but do not arrest normal BJ cells at the G1/S phase; Group 4: are inactive or weakly active; details: 5 μM, 48 h
Protocol: (§1) Cell death was assessed via Annexin V and/or PI (propidium iodide) staining according to the manufacturer's instructions (eBioscience). Cell growth arrest was assessed by direct measurement of DNA synthesis through incorporation of the nucleoside analog bromodeoxyuridine (BrdU). Briefly, BrdU (30 μM, Sigma-Aldrich) was added for 2 h before harvesting cells. Cells were subsequently stained with Pacific Blue-conjugated BrdU antibody (Invitrogen) for 1 h followed by PI staining. Stained cells were analyzed by MACSQuant (MACS). Three independent experiments were performed in triplicate. The percentage of Annexin V/PI- or BrdU-positive cells was quantified using Flow Jo software (Becton Dickinson). Where indicated, the combined activity of caspase-3/7 was determined using the caspase-Glo 3/7 Assay Kit (Promega) and normalized to the number of viable cells as determined by MTT assay.
Total cell lysates were prepared with 1% triton lysis buffer [25 mM Tris HCl (pH 8.0), 150 mM NaCl, 1% triton-X100, 1 mM dithiothreitol (DTT), protease inhibitor mix (Complete Mini, Roche) and phosphatase inhibitor (PhosphoStop, Roche)] and subjected to SDS-PAGE. The following antibodies were used for immunoblotting: anti-β-actin (Sigma-Aldrich), anti-cleaved PARP (Abcam, #ab32064), anti-PI5P4Kα (#5527), anti-PI5P4Kβ (#9694), anti-cleaved caspase-3 (#9664), anti-pHistone H3(Ser10) (#3377), anti-pAkt(S473) (#9271), anti-pAkt(T308) (#13038), anti-total Akt (#9272), anti-p70S6K(T389) (#9234), anti-total p70S6K (#9202), anti-pErk (#4370), anti-γ-Histone H2AX (#9718) (Cell signaling) and anti-PIK3IP1 (Proteintech, #16826-1-AP). The secondary antibodies used were sheep anti-mouse IgG HRP and donkey anti-rabbit IgG HRP (Amersham; 1:2000 dilution). Immunoreactive proteins were visualized using ECL reagent (Amersham). Where indicated, intensities of protein bands were quantified by densitometry (Odyssey V3.0), normalized to their loading controls and then calculated as fold expression change relative to DMSO control.

PI5P4Kα = biological target: T1, PI5P4Kα (Homo sapiens, UniProt P48426); experiment: Cell-free PI5P4Kα activity assay (ADP-Glo); assay type: biochemical; details: 1 h pre-incubation; PI(5)P 20 μM, ATP 10 μM; read-out: IC50, kinase activity of purified PI5P4Kα in vitro
T1 construct: gift from Daiichi Sankyo Co., Ltd. and Daiichi Sankyo RD Novare Co., Ltd
Protocol: For cell-free PI5P4Kα activity assays, serial dilutions of compounds were pre-incubated with 1 ng of PI5P4Kα (kind gift from Daiichi Sankyo Co., Ltd. and Daiichi Sankyo RD Novare Co., Ltd.) in reaction buffer [50 mM HEPES (pH 7.0), 13 mM MgCl2, 0.005% CHAPS, 0.01% BSA, 2.5 mM DTT] for 1 h at 25° C. DOPS (80 μM, Avanti polar lipids), PI(5)P (20 μM, Echelon) and ATP (10 μM, Sigma-Aldrich) were added and further incubated for 90 min at room temperature. PI5P4Kα activity was measured by recording luminescent signals (Tecan) using an ADP-Glo Kinase Assay (Promega) according to the manufacturer's protocol.

[3] = test system: HCT-15 human colon adenocarcinoma cells; experiment: HCT-15 tumor xenograft in nude mice; assay type: in vivo, mouse; details: for antitumor activity (tumor volume): a131 20 mg/kg, b5 40-80 mg/kg, 12 days, paclitaxel IV
Description: BALB/c athymic female nude mice (nu/nu, 5-7 weeks) (InVivos) were kept under specific pathogen-free (SPF) conditions. The care and use of mice was approved by the Duke-NUS IACUC in accordance with protocol 2015/SHS/1030. HCT15 human colon cancer cells (5×10^6) or MDA-MB-231 human breast cancer cells (4×10^6 with Matrigel) were subcutaneously injected into the flanks of mice. When the mean tumor volume reached 100-300 mm^3 (Day 1), the mice were randomly divided into experimental groups of 6 mice by an algorithm that moves animals around to achieve the best case distribution to assure that each treatment group has similar mean tumor burden and standard deviation. No statistical method was used to predetermine sample size. […] Paclitaxel (Cayman Chemical) was dissolved in ethanol:Tween 80=1:3 (v/v) solution followed by the addition of a 5% glucose solution (final ratio, ethanol:Tween 80:5% glucose=5:15:80) and injected via the tail vain (IV). Tumor dimensions were measured using calipers, and tumor volume (mm^3) was calculated using the formula width^2×length/2 in a blinded fashion. On Day 12 (HCT15) or Day 16 (MDA-MB-231), mice were sacrificed. Tumors were collected, fixed overnight in 4% paraformaldehyde (PFA) and stored in 70% ethanol. For immunostaining, antigens were retrieved from formaldehyde-fixed, paraffin-embedded tumor tissue sections for 30 min by boiling in sodium citrate buffer (pH 6.0) using a microwave histoprocessor (Milestone). Endogenous peroxidase activity in tissue sections was depleted by treatment with 3% hydrogen peroxide (H2O2 in 1×TBS) for 20 min at room temperature. Tumor tissue sections were incubated overnight with anti-β-tubulin (Abcam; 1:100 in 3% BSA/TBS-Tween 20) at 4° C. followed by incubation with goat anti-rabbit FITC-conjugated secondary antibody (Invitrogen; 1:200 in 3% BSA/TBS) for 1 h at 25° C. After dehydration treatment, coverslips were mounted using DAPI mounting medium (Vector). Images were acquired in 3D-SIM mode using a super resolution microscope (Nikon), and the number of cells with either 2 or mitotic-spindles was quantified (n>50 cells per section, 6-7 sections per treatment). For detection of apoptosis using the TUNEL method, the ApopTag Plus Peroxidase In Situ Apoptosis Detection Kit (Millipore) was used for formaldehyde-fixed, paraffin-embedded tumor tissue sections treated with b5 (80 mg/kg, IP) or control vehicle for 12 days. Slide scans were acquired using a MetaSystems Metafer built on a Zeiss Axiolmager Z.2 upright microscope. The system is equipped with a CoolCubel camera and a Zeiss Plan-Neofluar 20×/0.5 Ph2 objective lens. Image acquisition was controlled with Metafer4 software, and stitching was performed with the VSlide software and further processed using the open source software FIJI. A custom macro was used to batch process the images in the following sequence: Gaussian filter, color deconvolution of hematoxylin and DAB, thresholding the hematoxylin image, watershed to separate touching nuclei, and then count the number of hematoxylin-stained nuclei. For the DAB image, a fixed threshold was used, watershed applied and the number of DAB stained nuclei counted. In all cases, no data or animals were excluded and results are expressed as mean and standard deviation of the mean.

[4] = test system: normal and transformed BJ cells; experiment: Chemoprotection: a166 pre-treatment followed by a159, paclitaxel or etoposide; assay type: cell-based, human; details: without a166 pre-treatment
Protocol: as §1

PIK3IP1 = experiment: qRT-PCR of PIK3IP1 mRNA in Ras- or Raf-mutant cancer cell lines; assay type: cell-based, human; details: U0126 and/or SCH772984, 24 h
Protocol: […] human […] ID NO: 11, [NT] ID NO: 12), human […] ID NO: 13, [NT] ID NO: 14), human […] ID NO: 15, [NT] ID NO: 16) and human PIK3IP1 ([NT] ID NO: 17, [NT] ID NO: 18). The TATA-binding protein (TBP) gene was used for normalization. All PCR reactions were performed in triplicate.

[5] = test system: MDA-MB-231 human breast tumor cells; experiment: MDA-MB-231 tumor xenograft in nude mice; assay type: in vivo, mouse; details: a131 20 mg/kg, b5 40-80 mg/kg, PO or IP twice daily, 15 days
Description: BALB/c athymic female nude mice (nu/nu, 5-7 weeks) (InVivos) were kept under specific pathogen-free (SPF) conditions. The care and use of mice was approved by the Duke-NUS IACUC in accordance with protocol 2015/SHS/1030. HCT15 human colon cancer cells (5×10^6) or MDA-MB-231 human breast cancer cells (4×10^6 with Matrigel) were subcutaneously injected into the flanks of mice. When the mean tumor volume reached 100-300 mm^3 (Day 1), the mice were randomly divided into experimental groups of 6 mice by an algorithm that moves animals around to achieve the best case distribution to assure that each treatment group has similar mean tumor burden and standard deviation. No statistical method was used to predetermine sample size. […] Tumor dimensions were measured using calipers, and tumor volume (mm^3) was calculated using the formula width^2×length/2 in a blinded fashion. […] Images were acquired in 3D-SIM mode using a super resolution microscope (Nikon), and the number of cells with either 2 or mitotic-spindles was quantified (n>50 cells per section, 6-7 sections per treatment). […] For the DAB image, a fixed threshold was used, watershed applied and the number of DAB stained nuclei counted. In all cases, no data or animals were excluded and results are expressed as mean and standard deviation of the mean.

T1 sequence (P48426 whole entry): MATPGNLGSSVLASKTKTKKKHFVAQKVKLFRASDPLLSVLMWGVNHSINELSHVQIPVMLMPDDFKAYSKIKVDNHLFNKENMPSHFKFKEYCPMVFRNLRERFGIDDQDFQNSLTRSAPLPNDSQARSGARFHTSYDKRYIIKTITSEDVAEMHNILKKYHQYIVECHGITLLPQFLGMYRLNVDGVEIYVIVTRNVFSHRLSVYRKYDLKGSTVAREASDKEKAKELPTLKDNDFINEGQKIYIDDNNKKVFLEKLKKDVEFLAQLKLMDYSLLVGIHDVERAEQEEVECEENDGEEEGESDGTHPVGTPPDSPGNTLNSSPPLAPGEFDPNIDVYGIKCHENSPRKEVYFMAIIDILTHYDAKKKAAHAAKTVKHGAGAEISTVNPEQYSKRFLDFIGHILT

COC(=O)Nc1nc2ccc(C(=O)c3cccs3)cc2[nH]1 [nocodazole]
selective killing of transformed versus normal BJ cells (cell viability) [1]: showed minimal selectivity

N#C/C(=C\c1cccc2cnccc12)c1c[nH]c2ccc(OCCCN3CCCC3)cc12 [b12]
Group (a131 SAR analysis) [2]: Group 2

N#C/C(=C\c1cccc2cccnc12)c1c[nH]c2ccccc12 [a158]
Group (a131 SAR analysis) [2]: Group 2

CN1CCN(C(=O)Cn2cc(/C(C#N)=C/c3cccc4cnccc34)c3ccccc32)CC1 [b94]
Group (a131 SAR analysis) [2]: Group 2

COc1cc(/C=C(\C#N)C(=O)c2ccc(O)c(O)c2)cc(I)c1O [I-OMe-AG-538]
IC50 (PI5P4Kα): 2100 nM

N#C/C(=C\c1cccc2cnccc12)c1c[nH]c2ncccc12 [a167]
Group (a131 SAR analysis) [2]: Group 4

N#C/C(=C\c1cccc2ncccc12)c1c[nH]c2ccccc12 [a159]
Group (a131 SAR analysis) [2]: Group 3

CC(=O)NCCC(=O)n1cc(/C(C#N)=C/c2cccc3cnccc23)c2ccccc21 [b9]
Group (a131 SAR analysis) [2]: Group 1

CC(=O)O[C@H]1C(=O)[C@@]2(C)[C@H]([C@H](OC(=O)c3ccccc3)[C@]3(O)C[C@H](OC(=O)[C@H](O)[C@@H](NC(=O)c4ccccc4)c4ccccc4)C(C)=C1C3(C)C)[C@]1(OC(C)=O)CO[C@@H]1C[C@@H]2O [paclitaxel]
antitumor activity (tumor volume) ([3]; PO or IP twice daily): did not show significant antitumor activity
selectivity against transformed BJ cells, treatment alone [4]: showed minimal selectivity against transformed BJ cells
selective killing of transformed versus normal BJ cells (cell viability) [1]: showed minimal selectivity

N#CC(=C(/N)Sc1ccccc1N)/C(C#N)=C(\N)Sc1ccccc1N [U0126]
PIK3IP1 mRNA expression after MEK/ERK inhibition (PIK3IP1): attenuates Ras- and Raf-mediated suppression of PIK3IP1

CN1CCN(CC(=O)n2cc(/C(C#N)=C/c3cccc4cnccc34)c3ccccc32)CC1 [b5, (Z)-3-(isoquinolin-5-yl)-2-(1-(2-(4-methylpiperazin-1-yl)acetyl)-1H-indol-3-yl)acrylonitrile]
cancer cell death in tumor sections (TUNEL staining) ([3]; HCT-15 tumor sections, Day 12, b5 80 mg/kg IP): cancer cell death as determined by TUNEL staining
antitumor activity (tumor volume) ([3]; PO or IP twice daily): marked antitumor efficacies
body weight loss ([3]; xenograft-bearing mice, PO or IP twice daily): without any body weight loss
antitumor activity (tumor volume) [5]: marked antitumor efficacies
Group (a131 SAR analysis) [2]: Group 1

N#C/C(=C\c1cncc2ccccc12)c1c[nH]c2ccccc12 [a132]
Group (a131 SAR analysis) [2]: Group 4

COCCOc1ccc2[nH]cc(/C(C#N)=C/c3cccc4cnccc34)c2c1 [b16]
Group (a131 SAR analysis) [2]: Group 2

O=C(Nc1ccc2[nH]nc(-c3ccncc3)c2c1)[C@@H]1CCN(CC(=O)N2CCN(c3ccc(-c4ncccn4)cc3)CC2)C1 [SCH772984]
PIK3IP1 mRNA expression after MEK/ERK inhibition (PIK3IP1): attenuates Ras- and Raf-mediated suppression of PIK3IP1

N#C/C(=C\c1cccc2cnccc12)c1nc2ccccc2[nH]1 [a169]
Group (a131 SAR analysis) [2]: Group 4
